# Measured values published in patent publication US11261175B2 (priority 2017, dated 2022).
# What was measured:
# Type in all cases: cell-based
# [1] = test system: HCV genotype 1b replicon with NS5A L31V mutation; experiment: Transiently transfected assay of genotype 1b resistance mutant RNA L31V; details: Hepatitis C virus, Huh-7.5.1, 72 h, read-out: HCV Mutation L31V
# Source text: (§1) <Experimental Example 3> Transiently Transfected Assay of Genotype 1b Resistance Mutant RNAs
# (§2) Replicon genomes substituted with Y93H, L31V and L31V+Y93H (double mutant), the resistance mutants to Daclatasvir with mutations at the NS5A protein domain 1.
# (§3) These HCV resistance mutant genomes were linearized with scal restriction enzyme, and then the mutated HCV RNA was synthesized through in vitro transcription. Huh 7.5.1 cells were individually electroporated with HCV RNA with resistant mutations and plated in a 12 well plate. After 4 hours, Huh7.5.1 cells were seeded in DMEM containing the compounds of examples serially diluted for 3 days. Three days later, the cells were harvested and the intracellular luciferase activity was measured. The luciferase activity was normalized with those obtained from the negative control cells (mock-treated cells).
# [2] = test system: JFH5a-Rluc-ad34 virus (HCV GT-2a); experiment: Anti-HCV activity using HCVcc (JFH5a-Rluc-ad34 virus) in Huh 7.5.1 cells, Renilla luciferase readout; details: Hepatitis C virus, GT2A, Huh-7.5.1, 72 h, read-out: HCV wt. GT-2a
# Description: <Experimental Example 1> Measurement of Anti-HCV Activity of Compounds of Examples Using HCVcc
# Step 1: Cell Line and Cell Culture
# Huh 7.5.1 cells were grown in Dulbecco's Modified Eagle's medium (DMEM; Gibco) supplemented with antibiotics (100 U/mL penicillin, 10 μg/mL streptomycin) and 10% heat-inactivated fetal bovine serum (ΔFBS; PEAK) in a CO2 incubator at 37° C. with […].
# Huh7.5.1 cells were transfected with in vitro transcription RNA of JFH5a-Rluc-ad34, a derivative of JFH1 with adaptive mutations in E2 and p7 regions, by electroporation. JFH5a-Rluc-ad34 virus contains Renilla luciferase (Rluc), which is convenient for virus proliferation assay. The cell culture medium containing HCV was collected 3-5 days after the electroporation and then filtered through a […] pore size filter.
# Step 3: Antiviral Activity Test Using Infectious HCV Particles
# Huh 7.5.1 cells were inoculated with JFH5a-Rluc-ad34 virus and incubated for 4 hours. Four hours after the virus inoculation, the Huh7.5.1 cells infected with HCV were cultured in the medium containing the compound of examples serially diluted. Three days later, the cells were harvested and the intracellular luciferase activity was measured using Renilla luciferase assay system (Promega). Finally, the luciferase activity was normalized with those obtained from the negative control cells (mock-treated cells).
# [3] = test system: HCV replicon NK5.1-Gluc (genotype 1b); experiment: Anti-HCV activity using HCV replicon NK5.1-Gluc (genotype 1b) in Huh 7.5.1 cells, luciferase readout; details: Hepatitis C virus, 72 h; Huh 7.5.1 cells with NK5.1-Gluc replicon, 3 days, Gaussia luciferase; read-out: HCV wt. GT-1b
# [4] = test system: HCV replicon S52-Feo (genotype 3a); experiment: Anti-HCV activity using HCV replicon S52-Feo (genotype 3a) in Huh 7.5.1 cells, luciferase readout; details: Hepatitis C virus, 72 h; Huh 7.5.1 cells with S52-Feo replicon, 3 days, firefly luciferase; read-out: HCV wt. GT-3a
# [5] = test system: HCV genotype 1b replicon with NS5A Y93H mutation; experiment: Transiently transfected assay of genotype 1b resistance mutant RNA Y93H; details: Hepatitis C virus, Huh-7.5.1, 72 h, read-out: HCV Mutation Y93H
# Source text: as §1, §2, §3
# [6] = test system: HCV genotype 1b replicon with NS5A L31V+Y93H (double mutant); experiment: Transiently transfected assay of genotype 1b resistance mutant RNA L31V+Y93H (double mutant); details: Hepatitis C virus, Huh-7.5.1, 72 h, read-out: HCV Mutation L31V + Y93H
# Source text: as §1, §2, §3
smiles,measurement,setting,value
"CCCCCC1(CCCCC)c2cc(NC(=O)[C@@H]3CC(=O)CN3C(=O)[C@H](NC(=O)OC)c3ccccc3)ccc2-c2ccc(NC(=O)[C@@H]3CC(=O)CN3C(=O)[C@H](NC(=O)OC)c3ccccc3)cc21 [Example 17, dimethyl ((1R,1′R)-((5S,5′S)-(((9,9-dipentyl-9H-fluorene-2,7-diyl)bis(azanediyl))bis(carbonyl))bis(3-oxopyrrolidine-5,1-diyl))bis(2-oxo-1-phenylethane-2,1-diyl))dicarbamate]",EC50,[1],0.001 to 0.01 nM
same,EC50,[2],1 to 100 nM
same,EC50,[3],0.001 to 0.01 nM
same,EC50,[4],0.01 to 0.1 nM
same,EC50,[5],0.1 to 1 nM
same,EC50,[6],1 to 100 nM
"CCCC1(CCC)c2cc(NC(=O)[C@@H]3CCCN3C(=O)[C@H](NC(=O)OC)c3ccccc3)ccc2-c2ccc(-c3cnc([C@@H]4CCCN4C(=O)[C@@H](NC(=O)OC)C(C)C)[nH]3)cc21 [Example 3, methyl ((S)-1-((S)-2-(5-(9,9-dipropyl-7-((S)-1-((R)-2-((methoxycarbonyl)amino)-2-phenylacetyl)pyrrolidine-2-carboxyamido)-9H-fluorene-2-yl)-1H-imidazole-2-yl)pyrrolidine-1-yl)-3-methyl-1-oxobutane-2-yl)carbamate]",EC50,[1],0.01 to 0.1 nM
same,EC50,[2],0.01 to 0.1 nM
same,EC50,[3],0.01 to 0.1 nM
same,EC50,[4],0.01 to 0.1 nM
same,EC50,[5],0.01 to 0.1 nM
same,EC50,[6],1 to 100 nM
"CCCCC1(CCCC)c2cc(NC(=O)[C@@H]3CCCN3C(=O)[C@H](NC(=O)OC)c3ccccc3)ccc2-c2ccc(NC(=O)[C@@H]3CC4(CN3C(=O)[C@H](NC(=O)OC)c3ccccc3)OCCO4)cc21 [Example 16, methyl ((R)-2-((S)-8-((9,9-dibutyl-7-((S)-1-((R)-2-((methoxycarbonyl)amino)-2-phenylacetyl)pyrrolidine-2-carboxyamido)-9H-fluorene-2-yl)carbamoyl)-1,4-dioxa-7-azaspiro[4.4]nonane-7-yl)-2-oxo-1-phenylethyl)carbamate]",EC50,[1],0.001 to 0.01 nM
same,EC50,[2],1 to 100 nM
same,EC50,[3],0.001 to 0.01 nM
same,EC50,[4],0.01 to 0.1 nM
same,EC50,[5],0.01 to 0.1 nM
same,EC50,[6],1 to 100 nM
"CCCCC1(CCCC)c2cc(NC(=O)[C@@H]3CCCN3C(=O)[C@H](NC(=O)OC)c3ccccc3)ccc2-c2ccc(-c3cnc([C@@H]4C[C@H](COC)CN4C(=O)[C@@H](NC(=O)OC)C(C)C)[nH]3)cc21 [Example 41, methyl ((S)-1-((2S,4S)-2-(5-(9,9-dibutyl-7-((S)-1-((R)-2-((methoxycarbonyl)amino)-2-phenylacetyl)pyrrolidine-2-carboxyamido)-9H-fluorene-2-yl)-1H-imidazole-2-yl)-4-(methoxymethyl)pyrrolidine-1-yl)-3-methyl-1-oxobutane-2-yl)carbamate]",EC50,[1],0.001 to 0.01 nM
same,EC50,[2],0.01 to 0.1 nM
same,EC50,[3],0.01 to 0.1 nM
same,EC50,[4],0.1 to 1 nM
same,EC50,[5],0.01 to 0.1 nM
same,EC50,[6],1 to 100 nM
"CCCCC1(CCCC)c2cc(NC(=O)[C@@H]3C[C@H]4CCC[C@H]4N3C(=O)[C@H](NC(=O)OC)c3ccccc3)ccc2-c2ccc(-c3cnc([C@@H]4CCCN4C(=O)[C@@H](NC(=O)OC)C(C)C)[nH]3)cc21 [Example 28, methyl ((S)-1-((S)-2-(5-(9,9-dibutyl-7-((2S,3aR,6aR)-1-((R)-2-((methoxycarbonyl)amino)-2-phenylacetyl)octahydrocyclopenta[b]pyrrole-2-carboxyamido)-9H-fluorene-2-yl)-1H-imidazole-2-yl)pyrrolidine-1-yl)-3-methyl-1-oxobutane-2-yl)carbamate]",EC50,[1],0.01 to 0.1 nM
same,EC50,[2],0.01 to 0.1 nM
same,EC50,[3],0.001 to 0.01 nM
same,EC50,[4],0.01 to 0.1 nM
same,EC50,[5],0.1 to 1 nM
same,EC50,[6],> 100 nM
"CCCC1(CCC)c2cc(NC(=O)[C@@H]3CC4(CN3C(=O)[C@H](NC(=O)OC)c3ccccc3)OCCO4)ccc2-c2ccc(-c3cnc([C@@H]4CCCN4C(=O)[C@@H](NC(=O)OC)C(C)C)[nH]3)cc21 [Example 27, methyl ((S)-1-((S)-2-(5-(7-((S)-7-((R)-2-((methoxycarbonyl)amino)-2-phenylacetyl)-1,4-dioxa-7-azaspiro[4.4]nonane-8-carboxyamido)-9,9-dipropyl-9H-fluorene-2-yl)-1H-imidazole-2-yl)pyrrolidine-1-yl)-3-methyl-1-oxobutane-2-yl)carbamate]",EC50,[1],0.001 to 0.01 nM
same,EC50,[2],0.01 to 0.1 nM
same,EC50,[3],0.001 to 0.01 nM
same,EC50,[4],0.01 to 0.1 nM
same,EC50,[5],0.001 to 0.01 nM
same,EC50,[6],1 to 100 nM
"CCCCC1(CCCC)c2cc(NC(=O)[C@@H]3C[C@@H](OC)CN3C(=O)[C@H](NC(=O)OC)c3ccccc3)ccc2-c2ccc(NC(=O)[C@@H]3C[C@@H](OC)CN3C(=O)[C@H](NC(=O)OC)c3ccccc3)cc21 [Example 39, dimethyl (1R,1′R)-2,2′-((3R,3′R,5S,5′S)-5,5′-(9,9-dibutyl-9H-fluorene-2,7-diyl)bis(azanediyl)bis(oxomethylene)bis(3-methoxypyrrolidine-5,1-diyl))bis(2-oxo-1-phenylethane-2,1-diyl)dicarbamate]",EC50,[1],0.001 to 0.01 nM
same,EC50,[2],1 to 100 nM
same,EC50,[3],0.01 to 0.1 nM
same,EC50,[4],0.1 to 1 nM
same,EC50,[5],0.01 to 0.1 nM
same,EC50,[6],1 to 100 nM
"CCCCC1(CCCC)c2cc(NC(=O)[C@@H]3CC4(CN3C(=O)[C@H](NC(=O)OC)c3ccccc3)OCCO4)ccc2-c2ccc(NC(=O)[C@@H]3CC4(CN3C(=O)[C@H](NC(=O)OC)c3ccccc3)OCCO4)cc21 [Example 15, dimethyl ((1R,1′R)-((8S,8′S)-(((9,9-dibutyl-9H-fluorene-2,7-diyl)bis(azanediyl))bis(carbonyl))bis(1,4-dioxa-7-azaspiro[4.4]nonane-8,7-diyl))bis(2-oxo-1-phenylethane-2,1-diyl))dicarbamate]",EC50,[1],0.001 to 0.01 nM
same,EC50,[2],1 to 100 nM
same,EC50,[3],0.001 to 0.01 nM
same,EC50,[4],0.1 to 1 nM
same,EC50,[5],0.01 to 0.1 nM
same,EC50,[6],0.01 to 0.1 nM
"CCCC1(CCC)c2cc(NC(=O)[C@@H]3CCCN3C(=O)[C@H](NC(=O)OC)c3ccccc3)ccc2-c2ccc(NC(=O)[C@@H]3CCCN3C(=O)[C@H](NC(=O)OC)c3ccccc3)cc21 [Example 1, dimethyl ((1R,1′R)-((2S,2′S)-(((9,9-dipropyl-9H-fluorene-2,7-diyl)bis(azanediyl))bis(carbonyl))bis(pyrrolidine-2,1-diyl))bis(2-oxo-1-phenylethane-2,1-diyl))dicarbamate]",EC50,[1],0.1 to 1 nM
same,EC50,[2],1 to 100 nM
same,EC50,[3],0.01 to 0.1 nM
same,EC50,[4],0.1 to 1 nM
same,EC50,[5],1 to 100 nM
same,EC50,[6],> 100 nM
CCCCC1(CCCC)c2cc(NC(=O)[C@@H]3CC(F)(F)CN3C(=O)[C@H](NC(=O)OC)c3ccccc3)ccc2-c2ccc(NC(=O)[C@@H]3C[C@@H]4CCC[C@@H]4N3C(=O)[C@H](NC(=O)OC)c3ccccc3)cc21 [Example 24],EC50,[1],0.001 to 0.01 nM
same,EC50,[5],1 to 100 nM
same,EC50,[6],1 to 100 nM
"CCCCC1(CCCC)c2cc(NC(=O)[C@@H]3CC(F)(F)CN3C(=O)[C@H](NC(=O)OC)c3ccccc3)ccc2-c2ccc(NC(=O)[C@@H]3CC(F)(F)CN3C(=O)[C@H](NC(=O)OC)c3ccccc3)cc21 [Example 20, dimethyl ((1R,1′R)-((5S,5′S)-(((9,9-dibutyl-9H-fluorene-2,7-diyl)bis(azanediyl))bis(carbonyl))bis(3,3-difluoropyrrolidine-5,1-diyl))bis(2-oxo-1-phenylethane-2,1-diyl))dicarbamate]",EC50,[1],0.01 to 0.1 nM
same,EC50,[2],1 to 100 nM
same,EC50,[3],0.001 to 0.01 nM
same,EC50,[4],0.01 to 0.1 nM
same,EC50,[5],1 to 100 nM
CCCCC1(CCCC)c2cc(NC(=O)[C@@H]3CC(F)(F)CN3C(=O)[C@H](NC(=O)OC)c3ccccc3)ccc2-c2ccc(NC(=O)[C@@H]3CC4(CC4)CN3C(=O)[C@H](NC(=O)OC)c3ccccc3)cc21 [Example 23],EC50,[1],0.001 to 0.01 nM
same,EC50,[5],1 to 100 nM
same,EC50,[6],> 100 nM
